Results taken from patent US20080234384A1, “BIARYL AND BIHETEROARYL COMPOUNDS USEFUL IN TREATING IRON DISORDERS” (XENON PHARMACEUTICALS INC., priority 2007, published 2008).
Structures can show the parent of a compound that is named as a salt.

Tests used:
DMT1 = molecular target: T1, DMT1 (Homo sapiens, UniProt P49281); test: DMT1 Activity Assay (In Vitro Assay); format: cell-based; conditions: read-out: IC50 Activity Level
T1 sequence (P49281 1-568): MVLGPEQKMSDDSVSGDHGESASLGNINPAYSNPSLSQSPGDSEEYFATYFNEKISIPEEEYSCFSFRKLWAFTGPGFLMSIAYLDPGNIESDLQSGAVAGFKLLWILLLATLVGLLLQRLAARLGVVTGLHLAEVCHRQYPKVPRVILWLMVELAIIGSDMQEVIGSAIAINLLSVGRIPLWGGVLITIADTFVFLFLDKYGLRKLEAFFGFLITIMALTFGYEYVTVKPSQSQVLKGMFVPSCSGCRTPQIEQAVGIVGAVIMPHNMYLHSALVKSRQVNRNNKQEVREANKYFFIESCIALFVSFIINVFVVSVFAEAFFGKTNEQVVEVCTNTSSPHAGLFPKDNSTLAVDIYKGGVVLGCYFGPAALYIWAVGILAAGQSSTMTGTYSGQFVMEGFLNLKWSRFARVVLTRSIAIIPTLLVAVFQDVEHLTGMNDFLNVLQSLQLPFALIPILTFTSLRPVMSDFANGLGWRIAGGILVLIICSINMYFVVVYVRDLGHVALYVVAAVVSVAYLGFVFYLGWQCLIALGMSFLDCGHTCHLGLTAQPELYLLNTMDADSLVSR
Procedure, shortened: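 Cell-based Fe2+ uptake assay in DMT1-expressing cells (stable overexpressing lines, or endogenous in intestinal cells/tissue, K562 or […]), cells exposed to 55Fe or 59Fe or loaded with calcein before compound addition. Read-out is radiolabelled iron uptake or calcein fluorescence change; electrophysiology in Xenopus oocytes also described.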

melting point [°C] | IC50 (DMT1) [nM] | SMILES
> 250 | – | N=C(N)SCc1ccccc1C(=O)c1ccc(Cl)cc1CSC(=N)N (as salt: hydrobromid) [Example 2.29, 2-(6-(amidinothiomethyl)phenyl)carbonyl-1-(amidinothiomethyl)-5-chlorobenzene dihydrobromide]
> 220 | – | NC(N)=NC(=O)c1ccccc1Sc1ccccc1C(=O)N=C(N)N [Example 4, 2,2′-thiobis(N-(diaminomethylene)benzamide)]
188 to 190 | ≥ 1000 | N#CN=C(N)CCc1ccccc1Sc1ccccc1CCC(N)=NC#N [Example 7, 2-(6-(2-(cyanoamidino)ethyl)phenyl)thio-1-(2-(cyanoamidino)ethyl)benzene]
155 to 157 | ≥ 1000 | N#CN=C(N)CCCc1ccccc1Sc1ccccc1CCCC(N)=NC#N [Example 7.2, 2-(6-(3-(cyanoamidino)propyl)phenyl)thio-1-(3-(cyanoamidino)propyl)benzene]
